This assay deals with DYRK1A (Homo sapiens (Human), UniProt Q13627). As to the kind of experiment: DYRK1A activity Tau assay: pSer396 Tau in SH-SY5Y cells by ELISA / western blot. Conditions: overnight (16-18 h) exposure. In kind it is cell-based. A general note: In an ELISA, binding on a coated surface is turned into a signal by an enzyme label.

Molecules are shown by their SMILES.

From the text: In another example, in vitro assays for DYRK1A biological activity may be used, e.g. regulation of microtubule-associated protein tau (MAPT/Tau) phosphorylation in neuronal cell line such as the human SH-SY5Y neuroblastoma cell line. Assays for DYRK1a-regulated level of phosphorylation can include monitoring levels of basal pSer396 Tau, which can be measured, for example, by serial dilutions of a candidate inhibitor composition using a ten micromolar top concentration and detected by ELISA or Western Blotting. An exemplary assay for DYRK-1a-regulated phosphorylation uses the SH-SY5Y cells cultured in a 96 well plate format for a period of time sufficient to stabilize microtubules and Tau phosphorylation, usually at least 2 days, then treated with a 1/3 serial dilution of compounds overnight and lysed. The cell lysate is resolved by SDS PAGE, then transferred to nitrocellulose and probed with an antibody specific for pSer396 Tau.
In a further example, the activity of a candidate compound can be measured by ELISA by adding the lysate mentioned above onto total Tau-coated plates and detected with a specific pSer396 antibody.

As to `O=C(NC1CCOCC1)c1n[nH]c2ccc(-c3cccnc3)cc12` [Compound 2, 5-(Pyridin-3-yl)-N-(tetrahydro-2H-pyran-4-yl)-1H-indazole-3-carboxamide], the EC50 stood at 31 nM.
With `CC(C)NC(=O)c1n[nH]c2ccc(-c3cccnc3)cc12` [Compound 7, N-Isopropyl-5-(pyridin-3-yl)-1H-indazole-3-carboxamide], the EC50 was found to be 55 nM. Against the preceding compound, the EC50 is about 1.8-fold higher.
For the compound `CN1CCC(NC(=O)c2n[nH]c3ccc(-c4cncc(CN5CCC(F)(F)C5)c4)cc23)CC1` [Compound 10, 5-(5-((3,3-Difluoropyrrolidin-1-yl)methyl)pyridin-3-yl)-N-(1-methylpiperidin-4-yl)-1H-indazole-3-carboxamide], a half-maximal response (EC50) required 8 nM. This EC50 lies about 6.9-fold lower than the previous one.
The value for `O=C(NC1CCCCC1)c1n[nH]c2ccc(-c3cccc(F)c3)cc12` [Compound 12, N-Cyclohexyl-5-(3-fluorophenyl)-1H-indazole-3-carboxamide] was more than 10000 nM; that for `O=C(NC1CCOCC1)c1n[nH]c2ccc(-c3cccc(F)c3)cc12` [Compound 13, 5-(3-Fluorophenyl)-N-(tetrahydro-2H-pyran-4-yl)-1H-indazole-3-carboxamide] was 332 nM; that for `CN1CCC(NC(=O)c2n[nH]c3ccc(-c4ccccc4)cc23)CC1` [Compound 14, N-(1-Methylpiperidin-4-yl)-5-phenyl-1H-indazole-3-carboxamide] was 1150 nM.
The value for `CN1CCC(NC(=O)c2n[nH]c3ccc(-c4cccc(F)c4)cc23)CC1` [Compound 15, 5-(3-Fluorophenyl)-N-(1-methylpiperidin-4-yl)-1H-indazole-3-carboxamide] was 324 nM.
The value for `CN1CCC(NC(=O)c2n[nH]c3ccc(-c4ccc(F)cc4)cc23)CC1` [Compound 17, 5-(4-Fluorophenyl)-N-(1-methylpiperidin-4-yl)-1H-indazole-3-carboxamide] was 9000 nM.
Consider `CN1CCC(NC(=O)c2n[nH]c3ccc(-c4ccc(F)cc4F)cc23)CC1` [Compound 18, 5-(2,4-Difluorophenyl)-N-(1-methylpiperidin-4-yl)-1H-indazole-3-carboxamide], for which a half-maximal response (EC50) required 454 nM. Against the preceding compound, the EC50 is about 20-fold lower.
The same measure for `CN1CCC(NC(=O)c2n[nH]c3ccc(-c4cccc(F)c4F)cc23)CC1` [Compound 20, 5-(2,3-Difluorophenyl)-N-(1-methylpiperidin-4-yl)-1H-indazole-3-carboxamide]: 29 nM; for `O=C(NC1Cc2ccccc2C1)c1n[nH]c2ccc(-c3cccnc3)cc12` [Compound 22, N-(2,3-Dihydro-1H-inden-2-yl)-5-(pyridin-3-yl)-1H-indazole-3-carboxamide]: 52 nM; for `CN(C)Cc1cncc(-c2ccc3[nH]nc(C(=O)NC4Cc5ccccc5C4)c3c2)c1` [Compound 23, N-(2,3-Dihydro-1H-inden-2-yl)-5-(5-((dimethylamino)methyl)pyridin-3-yl)-1H-indazole-3-carboxamide]: 31 nM.
The same measure for `O=C(NC1Cc2ccccc2C1)c1n[nH]c2ccc(-c3cncc(CN4CCCCC4)c3)cc12` [Compound 24, N-(2,3-Dihydro-1H-inden-2-yl)-5-(5-(piperidin-1-ylmethyl)pyridin-3-yl)-1H-indazole-3-carboxamide]: 15 nM; for `O=C(NC1Cc2ccccc2C1)c1n[nH]c2ccc(-c3cncc(CN4CCCC4)c3)cc12` [Compound 25, N-(2,3-Dihydro-1H-inden-2-yl)-5-(5-(pyrrolidin-1-ylmethyl)pyridin-3-yl)-1H-indazole-3-carboxamide]: 28 nM; for `O=C(NCc1ccccc1)c1n[nH]c2ccc(-c3cncc(CN4CCCCC4)c3)cc12` [Compound 26, N-Benzyl-5-(5-(piperidin-1-ylmethyl)pyridin-3-yl)-1H-indazole-3-carboxamide]: 1 nM.
The value for `O=C(NCc1cccc(F)c1)c1n[nH]c2ccc(-c3cc(F)cc(CN4CCCCC4)c3)cc12` [Compound 30, 5-(3-Fluoro-5-(piperidin-1-ylmethyl)phenyl)-N-(3-fluorobenzyl)-1H-indazole-3-carboxamide] was 120 nM; that for `O=C(NCc1cc(F)cc(F)c1)c1n[nH]c2ccc(-c3cc(F)cc(CN4CCCCC4)c3)cc12` [Compound 31, N-(3,5-Difluorobenzyl)-5-(3-fluoro-5-(piperidin-1-ylmethyl)phenyl)-1H-indazole-3-carboxamide] was 118 nM.
Turning to `O=C(NC1(c2ccccc2)CC1)c1n[nH]c2ccc(-c3cccnc3)cc12` [Compound 32, N-(1-Phenylcyclopropyl)-5-(pyridin-3-yl)-1H-indazole-3-carboxamide], the EC50 amounted to 279 nM.
The value for `O=C(NC1(c2ccccc2)CC1)c1n[nH]c2ccc(-c3cncc(CN4CCCC4)c3)cc12` [Compound 34, N-(1-Phenylcyclopropyl)-5-(5-(pyrrolidin-1-ylmethyl)pyridin-3-yl)-1H-indazole-3-carboxamide] was 233 nM; that for `O=C(NC1(c2ccccc2)CC1)c1n[nH]c2ccc(-c3cncc(CN4CCCCC4)c3)cc12` [Compound 36, N-(1-Phenylcyclopropyl)-5-(5-(piperidin-1-ylmethyl)pyridin-3-yl)-1H-indazole-3-carboxamide] was 158 nM; that for `CN(C)Cc1cncc(-c2ccc3[nH]nc(C(=O)NC4(c5ccccc5)CC4)c3c2)c1` [Compound 37, 5-(5-((Dimethylamino)methyl)pyridin-3-yl)-N-(1-phenylcyclopropyl)-1H-indazole-3-carboxamide] was 196 nM.
The value for `O=C(Nc1ccc(C(F)(F)F)cn1)c1n[nH]c2ccc(-c3cccnc3)cc12` [Compound 40, 5-(Pyridin-3-yl)-N-(5-(trifluoromethyl)pyridin-2-yl)-1H-indazole-3-carboxamide] was 372 nM; that for `O=C(Nc1cc(C(F)(F)F)ccn1)c1n[nH]c2ccc(-c3cccnc3)cc12` [Compound 41, 5-(Pyridin-3-yl)-N-(4-(trifluoromethyl)pyridin-2-yl)-1H-indazole-3-carboxamide] was 118 nM.
The value for `O=C(Nc1cccc(C(F)(F)F)n1)c1n[nH]c2ccc(-c3cccnc3)cc12` [Compound 42, 5-(Pyridin-3-yl)-N-(6-(trifluoromethyl)pyridin-2-yl)-1H-indazole-3-carboxamide] was 115 nM; that for `O=C(Nc1ncc(F)cc1F)c1n[nH]c2ccc(-c3cccnc3)cc12` [Compound 46, N-(3,5-Difluoropyridin-2-yl)-5-(pyridin-3-yl)-1H-indazole-3-carboxamide] was 4 nM; that for `O=C(Nc1ccc(F)cn1)c1n[nH]c2ccc(-c3cncc(CN4CCCCC4)c3)cc12` [Compound 57, N-(5-Fluoropyridin-2-yl)-5-(5-(piperidin-1-ylmethyl)pyridin-3-yl)-1H-indazole-3-carboxamide] was 2 nM.
For `O=C(Nc1ncccc1C(F)(F)F)c1n[nH]c2ccc(-c3cncc(CN4CCCCC4)c3)cc12` [Compound 59, 5-(5-(Piperidin-1-ylmethyl)pyridin-3-yl)-N-(3-(trifluoromethyl)pyridin-2-yl)-1H-indazole-3-carboxamide], the 50% effective concentration (EC50) stood at 13 nM. Against the preceding compound, the EC50 is about 6.5-fold higher.
The same measure for `O=C(Nc1cc(C(F)(F)F)ccn1)c1n[nH]c2ccc(-c3cncc(CN4CCCCC4)c3)cc12` [Compound 60, 5-(5-(Piperidin-1-ylmethyl)pyridin-3-yl)-N-(4-(trifluoromethyl)pyridin-2-yl)-1H-indazole-3-carboxamide]: 20 nM; for `O=C(Nc1ccc(C(F)(F)F)cn1)c1n[nH]c2ccc(-c3cncc(CN4CCCCC4)c3)cc12` [Compound 61, 5-(5-(Piperidin-1-ylmethyl)pyridin-3-yl)-N-(5-(trifluoromethyl)pyridin-2-yl)-1H-indazole-3-carboxamide]: 10 nM; for `O=C(Nc1cccc(C(F)(F)F)n1)c1n[nH]c2ccc(-c3cncc(CN4CCCCC4)c3)cc12` [Compound 62, 5-(5-(Piperidin-1-ylmethyl)pyridin-3-yl)-N-(6-(trifluoromethyl)pyridin-2-yl)-1H-indazole-3-carboxamide]: 5 nM.
The value for `[2H]C([2H])(c1cncc(-c2ccc3[nH]nc(C(=O)Nc4cccnc4)c3c2)c1)N1CCCCC1` [Compound 63, 5-(5-(piperidin-1-ylmethyl-d2)pyridin-3-yl)-N-(pyridin-3-yl)-1H-indazole-3-carboxamide] was 1 nM; that for `O=C(Nc1c(F)cncc1F)c1n[nH]c2ccc(-c3cncc(CN4CCCCC4)c3)cc12` [Compound 79, N-(3,5-Difluoropyridin-4-yl)-5-(5-(piperidin-1-ylmethyl)pyridin-3-yl)-1H-indazole-3-carboxamide] was 1 nM; that for `CC(C)N1CCC(NC(=O)c2n[nH]c3ccc(-c4cccc(F)c4F)cc23)CC1` [Compound 92, 5-(2,3-Difluorophenyl)-N-(1-isopropylpiperidin-4-yl)-1H-indazole-3-carboxamide] was 100 nM.
`CC(C)CN1CCC(NC(=O)c2n[nH]c3ccc(-c4cccc(F)c4F)cc23)CC1` [Compound 93, 5-(2,3-Difluorophenyl)-N-(1-isobutylpiperidin-4-yl)-1H-indazole-3-carboxamide] yielded an EC50 of 73 nM.
The value for `CN1CCC(NC(=O)c2n[nH]c3ccc(-c4ccc(C(F)(F)F)nc4)cc23)CC1` [Compound 94, N-(1-Methylpiperidin-4-yl)-5-(6-(trifluoromethyl)pyridin-3-yl)-1H-indazole-3-carboxamide] was more than 10000 nM.
The value for `O=C(Nc1ccnc(N2CCCCC2)c1)c1n[nH]c2ccc(-c3cncc(CN4CCCCC4)c3)cc12` [Compound 101, N-(2-(Piperidin-1-yl)pyridin-4-yl)-5-(5-(piperidin-1-ylmethyl)pyridin-3-yl)-1H-indazole-3-carboxamide] was 1 nM.
The same measure for `O=C(Nc1ccnc(N2CCCC2)c1)c1n[nH]c2ccc(-c3cccnc3)cc12` [Compound 102, 5-(Pyridin-3-yl)-N-(2-(pyrrolidin-1-yl)pyridin-4-yl)-1H-indazole-3-carboxamide]: 4 nM.
For `CC(C)NC(=O)c1n[nH]c2ccc(-c3cncc(CN4CCC4)c3)cc12` [Compound 128, 5-(5-(Azetidin-1-ylmethyl)pyridin-3-yl)-N-isopropyl-1H-indazole-3-carboxamide], it took 43 nM to reach a half-maximal effect (EC50).

As usually defined, the EC50 is the concentration needed to bring the measured effect to its halfway point. A low value points to greater potency.

Values taken from patent US10669240B2, “5-substituted indazole-3-carboxamides and preparation and use thereof” (Samumed, LLC, priority 2014, dated 2020).
